Target: T1, recombinant human ULK1 protein (1-649) (Homo sapiens, UniProt O75385)
T1 construct: recombinant human ULK1 protein (1-649, SignalChem #U01-11G); purchased SignalChem U01-11G
T1 sequence (O75385 1-649): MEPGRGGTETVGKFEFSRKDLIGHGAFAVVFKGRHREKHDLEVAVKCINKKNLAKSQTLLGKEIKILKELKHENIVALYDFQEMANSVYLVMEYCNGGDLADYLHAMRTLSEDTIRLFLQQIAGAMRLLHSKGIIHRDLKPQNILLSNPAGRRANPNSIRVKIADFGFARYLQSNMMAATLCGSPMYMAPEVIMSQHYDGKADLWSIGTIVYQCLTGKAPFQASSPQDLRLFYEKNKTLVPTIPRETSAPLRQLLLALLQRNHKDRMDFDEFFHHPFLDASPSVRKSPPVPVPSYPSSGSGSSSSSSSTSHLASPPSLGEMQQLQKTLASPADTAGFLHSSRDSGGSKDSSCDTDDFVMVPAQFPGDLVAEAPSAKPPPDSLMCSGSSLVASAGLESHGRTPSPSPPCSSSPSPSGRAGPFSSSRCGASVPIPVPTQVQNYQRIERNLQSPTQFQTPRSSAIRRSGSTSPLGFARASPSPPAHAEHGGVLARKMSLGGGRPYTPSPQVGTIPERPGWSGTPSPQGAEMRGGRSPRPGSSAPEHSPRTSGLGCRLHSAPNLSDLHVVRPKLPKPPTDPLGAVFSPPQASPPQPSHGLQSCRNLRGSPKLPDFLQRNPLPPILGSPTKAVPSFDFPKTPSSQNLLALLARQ
Experiment: ULK1 inhibition assay (ADP Glo)
Format: biochemical
In short: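 Recombinant ULK1 (2 ug/mL) phosphorylated myelin basic protein (80 ug/mL) at 25 uM ATP; ADP formed was detected by ADP-Glo after 1 h. Compounds ran in triplicate, 16-dose 3-fold serial dilution from 30 uM, to give IC50.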

[1] = Table 1, 25 uM ATP, MBP substrate, one hour

IC50 [1] [nM] | Compound | also measured
> 10 | CNC(=O)c1ccccc1Nc1nc(Nc2ccc3c(c2)CCN(C(=O)N2CCN(C)CC2)C3)ncc1Br [Compound A128, 2-{5-Bromo-2-[2-(4-methyl-piperazine-1-carbonyl)-1,2,3,4-tetrahydro-isoquinolin-6-ylamino]-pyrimidin-4-ylamino}-N-methyl-benzamide] | –
1 to 10 | NOCC(=O)N1CCc2cc(Nc3ncc(C(F)(F)F)c(NC4CC4)n3)ccc2C1 [Compound A80] | –
> 10 | CNC(=O)c1ccccc1Nc1nc(Nc2ccc3c(c2)CCN(CC(=O)N2CCOCC2)C3)ncc1Br [Compound A127, 2-{5-Bromo-2-[2-(2-morpholin-4-yl-2-oxo-ethyl)-1,2,3,4-tetrahydro-isoquinolin-6-ylamino]-pyrimidin-4-ylamino}-N-methyl-benzamide] | –
1 to 10 | COC(=O)N1CCc2cc(Nc3ncc(C(F)(F)F)c(NC4CC4)n3)ccc2C1 [Compound A4] | –
< 1 | Cn1nccc1CN1CCc2cc(Nc3ncc(C(F)(F)F)c(NC4CC4)n3)ccc2C1 [Compound A63] | –
– | COc1cc(Nc2ncc(Br)c(Oc3ccc(NC(=O)C4(C(=O)Nc5ccc(F)cc5)CC4)cc3F)n2)cc(OC)c1OC [Compound C28, N-(4-((5-Bromo-2-((3,4,5-trimethoxyphenyl)amino)pyrimidin-4-yl)oxy)-3-fluorophenyl)-N-(4-fluorophenyl)cyclopropane-1,1-dicarboxamide] | IC50 (Table 3): > 100 nM
> 10 | CC(C)(C)OC(=O)N1CCc2cc(Nc3ncc(C(=O)O)c(NC4CC4)n3)ccc2C1 [Compound A30] | –
1 to 10 | FC(F)(F)c1cnc(Nc2ccc3c(c2)CN(Cc2cc[nH]c2)CC3)nc1NC1CC1 [Compound A94] | –
< 1 | O=C(O)C[C@H](NC(=O)OCc1ccccc1)C(=O)N1CCc2cc(Nc3ncc(C(F)(F)F)c(NC4CC4)n3)ccc2C1 (racemic) [Compound A67] | –
– | COC(=O)c1ccccc1Oc1nc(Nc2cc(F)c(OC)c(F)c2)ncc1Br [Compound B34] | IC50 (Table 2): > 1000 nM
– | CN(C)c1ccc(Nc2ncc(Br)c(Nc3ccccc3CO)n2)cc1 [Compound C11] | IC50 (Table 3): < 5 nM
– | COc1cc(Nc2ncc(Br)c(Nc3ccccc3CN3CCN(S(C)(=O)=O)CC3)n2)cc(OC)c1OC [Compound C22] | IC50 (Table 3): > 100 nM
< 1 | NCC(=O)N1CCc2cc(Nc3ncc(C(F)(F)F)c(NC4CC4)n3)ccc2C1 [Compound A27] | –
– | CNC(=O)c1ccccc1Nc1nc(Nc2cccc(OC)c2)ncc1Br [Compound E14, 2-((5-Bromo-2-((3-methoxyphenyl)amino)pyrimidin-4-yl)amino)-N-methylbenzamide] | IC50 (Table 3): 5 to 100 nM
1 to 10 | FC(F)(F)c1cnc(Nc2ccc3c(c2)CCN(CC2CCCN2)C3)nc1NC1CC1 (stereo not shown) [Compound A40] | –
1 to 10 | NC(=O)N1CCc2cc(Nc3ncc(C(F)(F)F)c(NC4CC4)n3)ccc2C1 [Compound A14] | –
1 to 10 | O=C(O)CCN1CCc2ccc(Nc3ncc(C(F)(F)F)c(NC4CC4)n3)cc2C1 [Compound A88] | –
– | CNC(=O)c1ccccc1Oc1nc(Nc2ccc3c(c2)OCCO3)ncc1C(F)(F)F [Compound B51, 2-((2-((2,3-Dihydrobenzo[b][1,4]dioxin-6-yl)amino)-5-(trifluoromethyl)pyrimidin-4-yl)oxy)-N-methylbenzamide] | IC50 (Table 2): > 1000 nM
> 10 | CNC(=O)c1ccccc1Nc1nc(Nc2ccc3c(c2)CN(CC(C)O)CC3)ncc1Br (stereo not shown) [Compound A157, 2-{5-Bromo-2-[2-(2-hydroxy-propyl)-1,2,3,4-tetrahydro-isoquinolin-7-ylamino]-pyrimidin-4-ylamino}-N-methyl-benzamide] | –
– | COC(=O)c1ccccc1Oc1nc(Nc2ccc(O)c(O)c2)ncc1Br [Compound B46] | IC50 (Table 2): > 1000 nM
< 1 | NC(=O)CCN1CCc2cc(Nc3ncc(C(F)(F)F)c(NC4CC4)n3)ccc2C1 [Compound A58] | –
> 10 | OCC(O)CN1CCc2cc(Nc3ncc(C(F)(F)F)c(NC4CC4)n3)ccc2C1 (stereo not shown) [Compound A13] | –

— patent US20230135635A1, “INHIBITORS OF ULK1/2 AND METHODS OF USING SAME” (SALK INSTITUTE FOR BIOLOGICAL STUDIES, priority 2020, published 2023)
